Experimental data as given in PubChem BioAssay (NCI).
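1) Cells in 96-well plates. 2) Compound, 48 h, 5 concentrations. 3) Linear interpolation between surrounding doses. 4) Unreached endpoint = highest concentration. Definition used: TGI = concentration required for complete inhibition of growth.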

Assays:
Assay in all cases: NCI tumour cell line growth inhibition, 48 h
SR leukemia = tested on: SR leukemia
OVCAR-3 ovarian = tested on: OVCAR-3 ovarian
HCT-116 colon = tested on: HCT-116 colon
SK-OV-3 ovarian = tested on: SK-OV-3 ovarian
TK-10 renal = tested on: TK-10 renal

Cc1cccc2c1Oc1cc(Cl)ccc1C2NC(=O)CCN1CCOCC1 (configuration not stated)
TGI (SR leukemia): > 100 µM | TGI (OVCAR-3 ovarian): > 100 µM | TGI (HCT-116 colon): > 100 µM | TGI (SK-OV-3 ovarian): > 100 µM | TGI (TK-10 renal): > 100 µM

COc1ccc2c(c1C)C(=O)C(O)(CC=C(C)C)O2 (configuration not stated)
TGI (SR leukemia): > 100 µM | TGI (OVCAR-3 ovarian): > 100 µM | TGI (HCT-116 colon): > 100 µM | TGI (SK-OV-3 ovarian): > 100 µM | TGI (TK-10 renal): > 100 µM

CC(=O)Oc1ccccc1-c1cc2ccccc2oc1=O
TGI (SR leukemia): > 100 µM | TGI (OVCAR-3 ovarian): > 100 µM | TGI (HCT-116 colon): > 100 µM

COc1ccc2c(c1)CCc1c-2[nH]c2ccc(OC)cc12
TGI (SR leukemia): > 100 µM | TGI (OVCAR-3 ovarian): > 100 µM | TGI (HCT-116 colon): > 100 µM | TGI (SK-OV-3 ovarian): > 100 µM | TGI (TK-10 renal): > 100 µM

CCN(CC)/C(Cl)=C(Cl)\C(=C1\Nc2ccc(OC)cc21)[N+](=O)[O-]
TGI (SR leukemia): 65 µM | TGI (OVCAR-3 ovarian): 57.3 µM | TGI (HCT-116 colon): > 100 µM | TGI (SK-OV-3 ovarian): > 100 µM | TGI (TK-10 renal): > 100 µM

CCOC(=O)C1(C(=O)OCC)CN(CC)CN(c2ccccc2)C1
TGI (SR leukemia): 47.7 µM | TGI (OVCAR-3 ovarian): 33.5 µM | TGI (HCT-116 colon): > 100 µM | TGI (SK-OV-3 ovarian): > 100 µM | TGI (TK-10 renal): 33.1 µM

CCOC(=O)C1=C(Nc2cccc(OC)c2)OCC1=O
TGI (SR leukemia): > 100 µM | TGI (HCT-116 colon): > 100 µM | TGI (SK-OV-3 ovarian): > 100 µM | TGI (TK-10 renal): > 100 µM

CC1(C#N)CC(C)(C)C(/C=C2/CC(C)(C)C(/C=C3/OC(=N)CC3(C)C)=N2)=N1 (configuration not stated)
TGI (SR leukemia): > 100 µM | TGI (OVCAR-3 ovarian): 45.8 µM | TGI (HCT-116 colon): > 100 µM | TGI (SK-OV-3 ovarian): 61 µM | TGI (TK-10 renal): > 100 µM

Cc1cccc2c1[C@]13OC(C)[C@]4(C)CC5OC(=O)[C@@]1(C)[C@@H]5[C@]34C(=O)O2 (some centres not stated)
TGI (SR leukemia): > 100 µM | TGI (OVCAR-3 ovarian): > 100 µM | TGI (HCT-116 colon): > 100 µM | TGI (SK-OV-3 ovarian): > 100 µM | TGI (TK-10 renal): > 100 µM

C=CCN1C[C@H](C)N([C@H](c2ccc(C(=O)N(CC)CCO)cc2)c2cccc(OC)c2)C[C@H]1C
TGI (SR leukemia): > 100 µM | TGI (OVCAR-3 ovarian): 54.6 µM | TGI (HCT-116 colon): > 100 µM | TGI (SK-OV-3 ovarian): > 100 µM | TGI (TK-10 renal): > 100 µM

N#CSc1nc[nH]c1C(N)=O
TGI (OVCAR-3 ovarian): > 100 µM | TGI (HCT-116 colon): > 100 µM | TGI (SK-OV-3 ovarian): > 100 µM | TGI (TK-10 renal): > 100 µM

CSC1=C(SC)SC(=C2SC3=C(SC(=C4SCCS4)S3)S2)S1
TGI (SR leukemia): > 100 µM | TGI (OVCAR-3 ovarian): > 100 µM | TGI (HCT-116 colon): > 100 µM | TGI (SK-OV-3 ovarian): > 100 µM | TGI (TK-10 renal): > 100 µM

Cn1ccc(C(=O)NCCOCCNC(=O)c2ccn(C)c(=O)c2O)c(O)c1=O
TGI (HCT-116 colon): > 100 µM | TGI (TK-10 renal): > 100 µM

COc1ccc(C[N+]23C(CC[C@H]2c2ccccc2)CC[C@H]3c2ccccc2)cc1 (some centres not stated)
TGI (SR leukemia): 41.4 µM | TGI (OVCAR-3 ovarian): 37 µM | TGI (HCT-116 colon): > 100 µM | TGI (SK-OV-3 ovarian): 87.7 µM | TGI (TK-10 renal): > 100 µM

C=CCNC1=C2C[C@@H](C)C[C@@H](OC)[C@@H](OC(=O)CCCN)[C@H](C)/C=C(\C)[C@@H](OC(N)=O)[C@H](OC)/C=C\C=C(/C)C(=O)NC(=CC1=O)C2=O
TGI (SR leukemia): > 79 µM | TGI (OVCAR-3 ovarian): 32.8 µM | TGI (HCT-116 colon): 52.9 µM | TGI (SK-OV-3 ovarian): 28.7 µM | TGI (TK-10 renal): 33.4 µM

C/C(=N\Nc1cc(CN2CCCC2)c(-c2ccc(Cl)cc2)nn1)C(=O)O
TGI (SR leukemia): > 100 µM | TGI (OVCAR-3 ovarian): > 100 µM | TGI (HCT-116 colon): > 100 µM | TGI (SK-OV-3 ovarian): > 100 µM | TGI (TK-10 renal): > 100 µM

C[C@H]1[C@H](C)CC[C@]2(C)CC[C@]3(C)C(=C[C@@H](O)[C@@H]4[C@@]5(C)[C@H](O)[C@@H](O)[C@H](O)C(C)(C)[C@@H]5CC[C@]43C)[C@H]12
TGI (SR leukemia): > 100 µM | TGI (OVCAR-3 ovarian): > 100 µM | TGI (HCT-116 colon): > 100 µM | TGI (SK-OV-3 ovarian): > 100 µM

O=C(C(=O)N1CCc2ccccc21)c1c[nH]c2ccccc12
TGI (SR leukemia): > 10 µM | TGI (OVCAR-3 ovarian): > 10 µM | TGI (HCT-116 colon): > 10 µM | TGI (SK-OV-3 ovarian): > 10 µM | TGI (TK-10 renal): > 10 µM

C[C@]12CCC(=O)C=C1CC[C@@H]1C2CC[C@]2(C)c3nn(-c4ccc(F)cc4)nc3CC12 (some centres not stated)
TGI (SR leukemia): > 100 µM | TGI (OVCAR-3 ovarian): > 100 µM | TGI (HCT-116 colon): > 100 µM | TGI (SK-OV-3 ovarian): > 100 µM | TGI (TK-10 renal): > 100 µM

COc1cccc(OC)c1/C=C1\OC(=O)c2cccc(OC)c21
TGI (SR leukemia): > 24.3 µM | TGI (OVCAR-3 ovarian): 13.5 µM | TGI (HCT-116 colon): > 100 µM | TGI (SK-OV-3 ovarian): > 100 µM | TGI (TK-10 renal): > 100 µM

CCN(CC)CCn1nc(N)c2nc3cc(Cl)ccc3nc21
TGI (SR leukemia): > 100 µM | TGI (HCT-116 colon): > 100 µM | TGI (SK-OV-3 ovarian): > 100 µM | TGI (TK-10 renal): > 100 µM

CC(=O)c1csc2c1C(=O)c1scc(C(C)=O)c1C2=O
TGI (OVCAR-3 ovarian): 0.646 µM | TGI (HCT-116 colon): 4.85 µM | TGI (SK-OV-3 ovarian): 4.64 µM | TGI (TK-10 renal): 5.82 µM

O=C(O)c1nc(-c2ccccn2)c(-c2ccccn2)nc1C(=O)O
TGI (SR leukemia): 9.91 µM | TGI (OVCAR-3 ovarian): 12.4 µM | TGI (HCT-116 colon): 5.6 µM | TGI (SK-OV-3 ovarian): 16.3 µM | TGI (TK-10 renal): 15.3 µM

COc1ccc2c(c1)CN1C(=N2)CSC1c1cc([N+](=O)[O-])ccc1Cl (configuration not stated)
TGI (SR leukemia): > 100 µM | TGI (HCT-116 colon): > 100 µM | TGI (SK-OV-3 ovarian): > 100 µM | TGI (TK-10 renal): > 100 µM

CN1CCOC1(C)CO (configuration not stated)
TGI (SR leukemia): > 100 µM | TGI (OVCAR-3 ovarian): > 100 µM | TGI (HCT-116 colon): > 100 µM | TGI (SK-OV-3 ovarian): > 100 µM | TGI (TK-10 renal): > 100 µM

CC1(C)c2ccccc2C(=O)C12CCC(=O)CC2
TGI (SR leukemia): > 100 µM | TGI (HCT-116 colon): > 100 µM | TGI (SK-OV-3 ovarian): > 100 µM | TGI (TK-10 renal): > 100 µM

Cc1ccc(S(=O)(=O)C2=Cc3ccc(C(F)(F)F)cc3C2(O)c2cccc(C(F)(F)F)c2)cc1 (configuration not stated)
TGI (SR leukemia): 8.14 µM | TGI (OVCAR-3 ovarian): 3.01 µM | TGI (HCT-116 colon): 3.03 µM | TGI (SK-OV-3 ovarian): 28.2 µM | TGI (TK-10 renal): 5.96 µM

C#CCn1ncc2c(SCc3ccccc3)ncnc21
TGI (SR leukemia): > 100 µM | TGI (OVCAR-3 ovarian): > 100 µM | TGI (HCT-116 colon): > 100 µM | TGI (SK-OV-3 ovarian): > 100 µM | TGI (TK-10 renal): > 100 µM

Cc1cccc(/C=N/NC(=S)NCCc2ccccn2)n1
TGI (SR leukemia): > 100 µM | TGI (OVCAR-3 ovarian): > 100 µM | TGI (HCT-116 colon): > 100 µM | TGI (SK-OV-3 ovarian): 43.5 µM | TGI (TK-10 renal): > 100 µM

COc1cccc(CCn2c(N)c(-c3ccccc3)c3ccc([N+](=O)[O-])cc3c2=O)c1
TGI (SR leukemia): 31.6 µM | TGI (OVCAR-3 ovarian): 6.51 µM | TGI (HCT-116 colon): 10 µM | TGI (SK-OV-3 ovarian): 23.3 µM | TGI (TK-10 renal): 5.31 µM

O=C1/C(=C\c2ccc([N+](=O)[O-])o2)SC2N=C(COc3ccc(Cl)cc3)NN12 (configuration not stated)
TGI (SR leukemia): > 100 µM | TGI (OVCAR-3 ovarian): 18.9 µM | TGI (HCT-116 colon): 14.5 µM | TGI (SK-OV-3 ovarian): 38.8 µM | TGI (TK-10 renal): 31.4 µM

COC(CN(C(=O)c1ccccc1)C1CCC2(SCCS2)c2[nH]c3ccccc3c21)OC (configuration not stated)
TGI (SR leukemia): > 100 µM | TGI (OVCAR-3 ovarian): > 100 µM | TGI (HCT-116 colon): > 100 µM | TGI (TK-10 renal): > 100 µM

CCC1OC2C(CC=C(C)C)=C3OC(C)(O)C(C)(CC)C(OC(=O)c4ccccc4)C3=C3OC(=O)C=C1C32 (configuration not stated)
TGI (SR leukemia): > 100 µM | TGI (OVCAR-3 ovarian): > 100 µM | TGI (HCT-116 colon): > 100 µM | TGI (SK-OV-3 ovarian): > 100 µM | TGI (TK-10 renal): > 100 µM

CC12CCC(C(=O)OC1=O)C2(C)C (configuration not stated)
TGI (SR leukemia): 64.3 µM | TGI (OVCAR-3 ovarian): > 100 µM | TGI (HCT-116 colon): > 100 µM | TGI (SK-OV-3 ovarian): > 100 µM | TGI (TK-10 renal): > 100 µM
